Results as given in patent publication US12495798B2, “Nicotinamide compound and herbicidal composition comprising compound” (KOREA RESEARCH INSTITUTE OF CHEMICAL TECHNOLOGY, priority 2019, dated 2025).

Experiments:
Type in all cases: in vivo
velvetleaf [1] = test: Herbicidal activity test against upland field weeds (foliar treatment test); parameters: key to Foliar treatment herbicidal activity, velvet leaf: 0 (no control); 100 (complete control); details: for pest or weed control at 50 g/ha: 50 g ai/ha
Outline: (§1)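 Visual 0–100 control ratings relative to untreated plants, taken 14 (or 21) days after spraying foliage at 50 or 75 g a.i./ha. Spray solution: 50% acetone with 0.1% Tween-20; plants kept in greenhouse at 30±5 °C, 14 h light/10 h dark.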

crabgrass [2] = test: as above; parameters: key to Foliar treatment herbicidal activity, Crabgrass: 0 (no control); 100 (complete control); details: scale 0-100; for pest or weed control at 75 g/ha: 75 g ai/ha
Outline: as §1

cocklebur [3] = test: Herbicidal activity test against upland field weeds (soil treatment test); parameters: key to Soil treatment herbicidal activity, Cocklebur: 0 (no control); 100 (complete control); details: scale 0 (no control) to 100 (complete control)
Procedure: Experimental Example 2: Herbicidal Activity Test Against Upland Field Weeds (Soil Treatment Test) Soil treatment was performed as follows: After filling a square plastic pot having a surface area of 350 cm^2 with sandy loam mixed with 1 g per pot (350 cm^2) of horticultural mixed fertilizer (N:P:K=11:10:11), seeds (10˜15 grains) or rootstocks (2 pieces) of 5 kinds of grassy weeds of sorghum, barnyard grass, quack grass, crabgrass, fall panicum, and 5 kinds of broadleaf weeds of black nightshade, indian jointvetch, velvetleaf, cocklebur, bindweed, which had been stored in a low temperature (6° C.), were sown. The day after sowing, test compound solutions were made by diluting with a preparation solution (including 50% acetone, 0.1% Tween-20) so that the final treatment amount of the test compounds was 50 or 75 g a.i./ha. The prepared test compound solution was used for treating soil surface by hand-spraying 14 mL per pot in a fume hood. After the treatment, it was managed under the same greenhouse conditions (average temperature 30±5° C., light/dark=14/10 hours), and after 14 days (after 21 days if necessary), the external symptoms and efficacy were investigated according to the scale of 0 (no control) to 100 (complete control). The results of Table 8 were obtained by evaluating weed control value to the untreated control by conducting visual assessment.

indian jointvetch [4] = test: as above; parameters: key to Soil treatment herbicidal activity, Indian jointvetch: 0 (no control); 100 (complete control); details: scale 0 (no control) to 100 (complete control)
Outline: (§2)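 Weed control scored visually on a 0 (none) to 100 (complete) scale versus untreated pots at 14 or 21 days in greenhouse (30±5 °C, 14 h light). Test compounds, 50 or 75 g a.i./ha in 50% acetone/0.1% Tween-20, hand-sprayed onto soil one day post-sowing.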

barnyard grass [5] = test: Herbicidal activity test against upland field weeds (foliar treatment test); parameters: key to Foliar treatment herbicidal activity, barnyard grass: 0 (no control); 100 (complete control); details: scale 0-100; for Foliar treatment herbicidal activity, barnyard grass: 50 g ai/ha; for pest or weed control at 75 g/ha: Echinochloa crus-galli, 75 g ai/ha
Outline: as §1

black nightshade [6] = test: Herbicidal activity test against upland field weeds (soil treatment test); parameters: key to Soil treatment herbicidal activity, black nightshade: 0 (no control); 100 (complete control); details: scale 0 (no control) to 100 (complete control); for pest or weed control at 50 g/ha: Solanum nigrum
Outline: as §2

fall panicum [7] = test: Herbicidal activity test against upland field weeds (foliar treatment test); parameters: key to Foliar treatment herbicidal activity, Fall panicum: 0 (no control); 100 (complete control); details: scale 0-100; for pest or weed control at 75 g/ha: 75 g ai/ha
Outline: as §1

crabgrass [8] = test: Herbicidal activity test against upland field weeds (soil treatment test); parameters: key to Soil treatment herbicidal activity, Crabgrass: 0 (no control); 100 (complete control); details: 50 g ai/ha, scale 0 (no control) to 100 (complete control)
Outline: as §2

cocklebur [9] = test: Herbicidal activity test against upland field weeds (foliar treatment test); parameters: key to Foliar treatment herbicidal activity, Cocklebur: 0 (no control); 100 (complete control); details: scale 0-100; for pest or weed control at 75 g/ha: 75 g ai/ha
Outline: as §1

black nightshade [10] = test: as above; parameters: key to Foliar treatment herbicidal activity, black nightshade: 0 (no control); 100 (complete control); details: scale 0-100; for pest or weed control at 50 g/ha: Solanum nigrum
Outline: as §1

indian jointvetch [11] = test: as above; parameters: key to Foliar treatment herbicidal activity, Indian jointvetch: 0 (no control); 100 (complete control); details: scale 0-100; for Foliar treatment herbicidal activity, Indian jointvetch: 50 g ai/ha; for pest or weed control at 75 g/ha: 75 g ai/ha
Outline: as §1

sorghum [12] = test: as above; parameters: key to Foliar treatment herbicidal activity, Sorghum: 0 (no control); 100 (complete control); details: scale 0-100; for Foliar treatment herbicidal activity, Sorghum: 50 g ai/ha; for plant injury at 75 g/ha: Sorghum, 75 g ai/ha
Outline: as §1

velvetleaf [13] = test: Herbicidal activity test against upland field weeds (soil treatment test); parameters: key to Soil treatment herbicidal activity, velvet leaf: 0 (no control); 100 (complete control); details: scale 0 (no control) to 100 (complete control); for pest or weed control at 50 g/ha: Abutilon theophrasti, 50 g ai/ha, read-out: Soil treatment herbicidal activity, velvet leaf; for Soil treatment herbicidal activity, velvet leaf: 75 g ai/ha
Outline: as §2

barnyard grass [14] = test: as above; parameters: key to Soil treatment herbicidal activity, barnyard grass: 0 (no control); 100 (complete control); details: scale 0 (no control) to 100 (complete control)
Outline: as §2

sorghum [15] = test: as above; parameters: key to Soil treatment herbicidal activity, Sorghum: 0 (no control); 100 (complete control); details: scale 0 (no control) to 100 (complete control); for Soil treatment herbicidal activity, Sorghum: 50 g ai/ha; for plant injury at 75 g/ha: Sorghum, 75 g ai/ha
Outline: as §2

fall panicum [16] = test: as above; parameters: key to Soil treatment herbicidal activity, Fall panicum: 0 (no control); 100 (complete control); details: scale 0 (no control) to 100 (complete control)
Outline: as §2

bindweed [17] = test: as above; parameters: key to Soil treatment herbicidal activity, Bindweed: 0 (no control); 100 (complete control); details: scale 0 (no control) to 100 (complete control); for pest or weed control at 75 g/ha: 75 g ai/ha
Outline: as §2

quack grass [18] = test: Herbicidal activity test against upland field weeds (foliar treatment test); parameters: key to Foliar treatment herbicidal activity, quack grass: 0 (no control); 100 (complete control); details: scale 0-100
Outline: as §1

quack grass [19] = test: Herbicidal activity test against upland field weeds (soil treatment test); parameters: key to Soil treatment herbicidal activity, quack grass: 0 (no control); 100 (complete control); details: scale 0 (no control) to 100 (complete control)
Outline: as §2

bindweed [20] = test: Herbicidal activity test against upland field weeds (foliar treatment test); parameters: key to Foliar treatment herbicidal activity, Bindweed: 0 (no control); 100 (complete control); details: scale 0-100; for pest or weed control at 75 g/ha: 75 g ai/ha
Outline: as §1

[21] = Abutilon theophrasti, scale 0-100, read-out: Foliar treatment herbicidal activity, velvet leaf
[22] = Xanthium strumarium, 50 g ai/ha
[23] = Panicum dichotomiflorum, 50 g ai/ha

Structure (SMILES) | pest or weed control at 50 g/ha (velvetleaf [1]; [21]) | Soil treatment herbicidal activity, Indian jointvetch (indian jointvetch [4]; 50 g ai/ha) | Foliar treatment herbicidal activity, barnyard grass (barnyard grass [5]) | Foliar treatment herbicidal activity, Indian jointvetch (indian jointvetch [11]) | Foliar treatment herbicidal activity, Sorghum (sorghum [12]) | pest or weed control at 50 g/ha (velvetleaf [13]) | Soil treatment herbicidal activity, barnyard grass (barnyard grass [14]; 50 g ai/ha) | Soil treatment herbicidal activity, Sorghum (sorghum [15]) | pest or weed control at 50 g/ha (bindweed [17]; 50 g ai/ha) | Foliar treatment herbicidal activity, quack grass (quack grass [18]; 50 g ai/ha) | Soil treatment herbicidal activity, quack grass (quack grass [19]; 50 g ai/ha) | pest or weed control at 50 g/ha (bindweed [20]; 50 g ai/ha) | Foliar treatment herbicidal activity, Crabgrass (crabgrass [2]; 50 g ai/ha) | Soil treatment herbicidal activity, Cocklebur (cocklebur [3]; 50 g ai/ha) | pest or weed control at 50 g/ha (black nightshade [6]; 50 g ai/ha) | Foliar treatment herbicidal activity, Fall panicum (fall panicum [7]; 50 g ai/ha) | Soil treatment herbicidal activity, Crabgrass (crabgrass [8]) | Foliar treatment herbicidal activity, Cocklebur (cocklebur [9]; 50 g ai/ha) | pest or weed control at 50 g/ha (black nightshade [10]; 50 g ai/ha) | Soil treatment herbicidal activity, Fall panicum (fall panicum [16]; 50 g ai/ha) | further results
Cc1cc(C(=O)Nc2nnnn2C)c(OCc2nnnn2C)nc1C(F)(F)F [Compound No. 1-17, 5-methyl-N-(1-methyl-1H-tetrazol-5-yl)-2-((1-methyl-1H-tetrazol-5-yl)methoxy)-6-(trifluoromethyl)nicotinamide] | 30% | 0 | 0 | 0 | 0 | 30% | 0 | 0 | 20% | 0 | 0 | 20% | – | – | – | – | – | – | – | – | pest or weed control at 50 g/ha (crabgrass [2]; Digitaria sanguinalis, 50 g ai/ha): 20%; pest or weed control at 50 g/ha (cocklebur [3]; [22]): 40%; Soil treatment herbicidal activity, black nightshade (black nightshade [6]; 50 g ai/ha): 100; pest or weed control at 50 g/ha (fall panicum [7]; [23]): 20%; pest or weed control at 50 g/ha (crabgrass [8]; Digitaria sanguinalis): 20%; pest or weed control at 50 g/ha (cocklebur [9]; [22]): 40%; Foliar treatment herbicidal activity, black nightshade (black nightshade [10]; 50 g ai/ha): 100; pest or weed control at 50 g/ha (fall panicum [16]; [23]): 20%
C=Cc1cc(C(=O)Nc2nnnn2C)c(OCc2nnnn2C)nc1C(F)(F)F [Compound No. 1-18, N-(1-methyl-1H-tetrazol-5-yl)-2-((1-methyl-1H-tetrazol-5-yl)methoxy)-6-(trifluoromethyl)-5-vinylnicotinamide] | 20% | 0 | 0 | 0 | 0 | 20% | 0 | 0 | 20% | 0 | 0 | 20% | 0 | 0 | 80% | 0 | 0 | 0 | 80% | 0 | –
CCc1cc(C(=O)Nc2nnnn2C)c(OCc2nnnn2C)nc1C(F)(F)F [Compound No. 1-19, 5-ethyl-N-(1-methyl-1H-tetrazol-5-yl)-2-((1-methyl-1H-tetrazol-5-yl)methoxy)-6-(trifluoromethyl)nicotinamide] | 20% | 0 | 0 | 0 | 0 | 20% | 0 | 0 | – | 0 | 0 | – | 0 | 0 | 98% | 0 | 0 | 0 | 90% | 0 | Soil treatment herbicidal activity, Bindweed (bindweed [17]; 50 g ai/ha): 0; Foliar treatment herbicidal activity, Bindweed (bindweed [20]; 50 g ai/ha): 0
CCN(Cc1nnn(C)n1)c1nc(C(F)(F)F)ccc1C(=O)Nc1nnnn1C [Compound No. 2-27, 2-(ethyl((2-methyl-2H-tetrazol-5-yl)methyl)amino)-N-(1-methyl-1H-tetrazol-5-yl)-6-(trifluoromethyl)nicotinamide] | – | – | – | – | – | – | – | – | – | – | – | – | – | – | – | – | – | – | – | – | Foliar treatment herbicidal activity, velvet leaf (velvetleaf [1]; 75 g ai/ha, scale 0-100): 100; pest or weed control at 75 g/ha (crabgrass [2]; Digitaria sanguinalis): 20%; Soil treatment herbicidal activity, Cocklebur (cocklebur [3]; 75 g ai/ha): 100; Soil treatment herbicidal activity, Indian jointvetch (indian jointvetch [4]; 75 g ai/ha): 100; pest or weed control at 75 g/ha (barnyard grass [5]): 80%; Soil treatment herbicidal activity, black nightshade (black nightshade [6]; 75 g ai/ha): 100; pest or weed control at 75 g/ha (fall panicum [7]; Panicum dichotomiflorum): 70%; pest or weed control at 75 g/ha (cocklebur [9]; Xanthium strumarium): 98%; Foliar treatment herbicidal activity, black nightshade (black nightshade [10]; 75 g ai/ha): 100; pest or weed control at 75 g/ha (indian jointvetch [11]): 70%; plant injury at 75 g/ha (sorghum [12]): 40%; Soil treatment herbicidal activity, velvet leaf (velvetleaf [13]): 100; Soil treatment herbicidal activity, barnyard grass (barnyard grass [14]; 75 g ai/ha): 100; plant injury at 75 g/ha (sorghum [15]): 50%; Soil treatment herbicidal activity, Fall panicum (fall panicum [16]; 75 g ai/ha): 100; pest or weed control at 75 g/ha (bindweed [17]): 98%; Foliar treatment herbicidal activity, quack grass (quack grass [18]; 75 g ai/ha): 0; Soil treatment herbicidal activity, quack grass (quack grass [19]; 75 g ai/ha): 0; pest or weed control at 75 g/ha (bindweed [20]): 40%
CN(Cc1ncn(C)n1)c1nc(C(F)(F)F)ccc1C(=O)Nc1nnnn1C [Compound No. 2-35, 2-(methyl((1-methyl-1H-1,2,4-triazol-3-yl)methyl)amino)-N-(1-methyl-1H-tetrazol-5-yl)-6-(trifluoromethyl)nicotinamide] | – | – | – | – | – | – | – | – | – | – | – | – | – | – | – | – | – | – | – | – | pest or weed control at 75 g/ha (velvetleaf [1]; Abutilon theophrasti, 75 g ai/ha, scale 0-100, read-out: Foliar treatment herbicidal activity, velvet leaf): 90%; pest or weed control at 75 g/ha (crabgrass [2]; Digitaria sanguinalis): 70%; pest or weed control at 75 g/ha (cocklebur [3]; Xanthium strumarium, 75 g ai/ha): 95%; Soil treatment herbicidal activity, Indian jointvetch (indian jointvetch [4]; 75 g ai/ha): 100; pest or weed control at 75 g/ha (barnyard grass [5]): 80%; Soil treatment herbicidal activity, black nightshade (black nightshade [6]; 75 g ai/ha): 100; pest or weed control at 75 g/ha (fall panicum [7]; Panicum dichotomiflorum): 80%; pest or weed control at 75 g/ha (cocklebur [9]; Xanthium strumarium): 90%; Foliar treatment herbicidal activity, black nightshade (black nightshade [10]; 75 g ai/ha): 100; pest or weed control at 75 g/ha (indian jointvetch [11]): 80%; plant injury at 75 g/ha (sorghum [12]): 70%; Soil treatment herbicidal activity, velvet leaf (velvetleaf [13]): 100; Soil treatment herbicidal activity, barnyard grass (barnyard grass [14]; 75 g ai/ha): 100; plant injury at 75 g/ha (sorghum [15]): 90%; Soil treatment herbicidal activity, Fall panicum (fall panicum [16]; 75 g ai/ha): 100; pest or weed control at 75 g/ha (bindweed [17]): 70%; Foliar treatment herbicidal activity, quack grass (quack grass [18]; 75 g ai/ha): 0; Soil treatment herbicidal activity, quack grass (quack grass [19]; 75 g ai/ha): 0; pest or weed control at 75 g/ha (bindweed [20]): 70%
